According to ChEMBL document CHEMBL3046359, “QSAR and pharmacophore studies of telomerase inhibitors” (Med Chem Res, 2012):

Legend:
[1] = target: Telomerase reverse transcriptase (Homo sapiens) (UniProt O14746); test: Inhibition of telomerase (unknown origin)
[2] = target: Telomerase reverse transcriptase (Homo sapiens) (UniProt O14746); test: Inhibition of telomerase in Homo sapiens (human) A549 cells after 24 hr by TRAP assay; format: cell-based
[3] = target: Telomerase reverse transcriptase (Homo sapiens) (UniProt O14746); test: Inhibition of Homo sapiens (human) telomerase
[4] = target: Telomerase reverse transcriptase (Homo sapiens) (UniProt O14746); test: Inhibition of telomerase in Homo sapiens (human) A549 cells by TRAP assay; format: cell-based

Chain of Telomerase reverse transcriptase (Homo sapiens) (O14746 whole entry): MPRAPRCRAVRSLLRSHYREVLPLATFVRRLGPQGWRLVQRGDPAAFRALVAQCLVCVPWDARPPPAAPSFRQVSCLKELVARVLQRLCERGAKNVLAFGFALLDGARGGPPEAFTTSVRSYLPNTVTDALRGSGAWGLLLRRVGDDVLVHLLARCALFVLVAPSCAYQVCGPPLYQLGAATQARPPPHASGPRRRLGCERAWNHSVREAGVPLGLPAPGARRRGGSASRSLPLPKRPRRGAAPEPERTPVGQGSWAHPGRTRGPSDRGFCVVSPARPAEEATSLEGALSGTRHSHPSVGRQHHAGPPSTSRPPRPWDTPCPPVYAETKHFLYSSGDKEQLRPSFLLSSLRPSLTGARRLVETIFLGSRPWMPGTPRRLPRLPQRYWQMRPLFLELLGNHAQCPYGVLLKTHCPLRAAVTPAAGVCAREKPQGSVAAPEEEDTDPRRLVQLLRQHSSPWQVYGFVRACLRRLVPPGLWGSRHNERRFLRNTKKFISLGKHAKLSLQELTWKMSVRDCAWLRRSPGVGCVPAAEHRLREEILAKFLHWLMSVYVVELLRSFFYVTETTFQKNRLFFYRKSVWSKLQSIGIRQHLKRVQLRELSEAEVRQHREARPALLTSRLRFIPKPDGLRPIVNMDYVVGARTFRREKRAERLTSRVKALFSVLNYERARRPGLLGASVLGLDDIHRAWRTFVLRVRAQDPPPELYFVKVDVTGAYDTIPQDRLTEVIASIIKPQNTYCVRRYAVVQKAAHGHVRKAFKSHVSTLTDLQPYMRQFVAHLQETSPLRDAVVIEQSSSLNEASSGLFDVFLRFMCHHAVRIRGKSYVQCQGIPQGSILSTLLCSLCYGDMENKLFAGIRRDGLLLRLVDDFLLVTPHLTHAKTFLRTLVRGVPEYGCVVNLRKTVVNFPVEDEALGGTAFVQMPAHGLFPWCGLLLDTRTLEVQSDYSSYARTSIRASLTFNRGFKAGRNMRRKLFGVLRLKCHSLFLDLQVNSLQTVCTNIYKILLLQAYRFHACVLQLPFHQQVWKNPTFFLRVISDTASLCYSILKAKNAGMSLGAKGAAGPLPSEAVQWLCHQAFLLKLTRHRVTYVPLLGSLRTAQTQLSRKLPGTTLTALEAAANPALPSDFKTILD

logIC50 [1]	SMILES	further results
1.2	CN(C)CCc1ccc2nc3c4ccccc4n(CCN(C)C)c3cc2c1	
0	CCCNCc1ccc2nc3ccc4nc5ccc(CNCCC)cc5cc4c3cc2c1	
-0.89	C[n+]1cccc2cc(Nc3nc(N)nc(Nc4ccc5c(ccc[n+]5C)c4)n3)ccc21	
-0.3	CCCNCc1ccc2nc3c(ccc4cc5cc(CNCCC)ccc5nc43)cc2c1	
-0.52	CCCNCc1ccc2nc3ccc4cc5cc(CNCCC)ccc5nc4c3cc2c1	
0.1	COc1ccc2ccc3c([nH]c4c5ccccc5nc(NCCN(C)C)c34)c2c1	
1.27	C[N+](C)(C)CCC(=O)Nc1ccc2c(c1)C(=O)c1cc(NC(=O)CC[N+](C)(C)C)ccc1-2	
1.4	CC[N+](C)(CC)CCC(=O)Nc1ccc2c(c1)C(=O)c1cc(NC(=O)CC[N+](C)(CC)CC)ccc1-2	
-1.55	CN(C)CCCNCc1ccc2nc3ccc4cc5cc(CNCCCN(C)C)ccc5nc4c3cc2c1	
0.84	C[N+](C)(C)c1ccc(Nc2nc(N)nc(Nc3ccc([N+](C)(C)C)cc3)n2)cc1	
0.16	CCCNCc1cc2nc3ccccc3cc2c2cc3ccccc3nc12	
-0.04	CN(C)CCCNCc1ccc2nc3c(ccc4cc5cc(CNCCCN(C)C)ccc5nc43)cc2c1	
0	COc1ccc2c(ccc3c2[nH]c2c4ccccc4nc(NCCCN(C)C)c32)c1	
-1.39	CSc1nc(Nc2ccc3nc(C)cc(N(C)C)c3c2)nc(Nc2ccc3nc(C)cc(N(C)C)c3c2)n1	

Second part, the molecule before the results:

SMILES	logIC50 [1]	further results
CCN1CCN(CCC(=O)Nc2ccc3c(c2)C(=O)c2cc(NC(=O)CCN4CCN(CC)CC4)ccc2-3)CC1	1.23	
O=C(CCN1CCCCCC1)Nc1ccc2c(c1)C(=O)c1ccc(NC(=O)CCN3CCCCCC3)cc1C2=O		logIC50 [2]: 1.11
O=C(CCN1CCCCC1)Nc1ccc2c(c1)C(=O)c1ccc(NC(=O)CCN3CCCCC3)cc1C2=O		logIC50 [2]: 0.65
CN(C)CCC(=O)Nc1ccc2c(c1)C(=O)c1cc(NC(=O)CCN(C)C)ccc1-2	1.21	
CC1CCCCN1CCC(=O)Nc1ccc2c(c1)C(=O)c1cc(NC(=O)CCN3CCCCC3C)ccc1-2 (stereo unspecified)	1.08	
CN(C)CCCNc1nc2ccccc2c2[nH]c3c4cc([N+](=O)[O-])ccc4ccc3c12	-0.3	
CCN(CC)CCOc1ccc2c(c1)OC1C(=O)c3ccccc3C(=O)C21 (stereo unspecified)	0.84	
O=C(CCN1CCCCC1)Nc1ccc2cc3ccc(NC(=O)CCN4CCCCC4)cc3nc2c1		logIC50 [2]: 0.45
O=C(O)CCCCCCCCCCCNC(=O)Cc1cn(CCOc2cccc3ccccc23)c2ccccc12		logIC50 [3]: 1.54
CCC1CCCCN1CCC(=O)Nc1ccc2c(c1)C(=O)c1cc(NC(=O)CCN3CCCCC3CC)ccc1-2 (stereo unspecified)	1.15	
Cc1c2n(c3ccccc13)CCCn1c-2c(CC(=O)NCCCCCCCCCCCC(=O)O)c2ccccc21		logIC50 [3]: 1.91
O=C(CCN1CCC(O)CC1)Nc1ccc2c(c1)C(=O)c1cc(NC(=O)CCN3CCC(O)CC3)ccc1-2	1.27	
O=C(CCN1CCCC1)Nc1ccc2c(c1)C(=O)c1ccc(NC(=O)CCN3CCCC3)cc1C2=O		logIC50 [2]: 0.25
O=C(CCN1CCCC1)Nc1ccc2cc3ccc(NC(=O)CCN4CCCC4)cc3nc2c1		logIC50 [2]: 0.72
C[N+]1(CCC(=O)Nc2ccc3c(c2)C(=O)c2cc(NC(=O)CC[N+]4(C)CCOCC4)ccc2-3)CCOCC1	1.44	
O=C(CCN1CCCCC1CO)Nc1ccc2c(c1)C(=O)c1cc(NC(=O)CCN3CCCCC3CO)ccc1-2 (stereo unspecified)	0.9	

SMILES	logIC50 [1]	further results
Cc1cn(CCCn2cc(CC(=O)NCCCCCCCCCCCC(=O)O)c3ccccc32)c2ccccc12		logIC50 [3]: 1.3
O=C(CCN1CCCCC1CCO)Nc1ccc2c(c1)C(=O)c1cc(NC(=O)CCN3CCCCC3CCO)ccc1-2 (stereo unspecified)	1.22	
CN1CCN(CCC(=O)Nc2ccc3c(c2)C(=O)c2cc(NC(=O)CCN4CCN(C)CC4)ccc2-3)CC1	1.64	
O=C(O)CCCCCCCCCCCNC(=O)Cc1cn(CCCOC2CCCCC2)c2ccccc12		logIC50 [3]: 1.83
O=C(O)CCCCCCCCCCCNC(=O)Cc1cn(CCCOc2ccccc2)c2ccccc12		logIC50 [3]: 1.51
O=C(O)CCCCCCCCCCCNC(=O)Cc1c2n(c3ccccc13)CCn1c-2cc2ccccc21		logIC50 [4]: 1.79
Cc1oc2nc1-c1nc(co1)-c1nc(co1)-c1nc(co1)-c1nc(co1)-c1nc(co1)C1=NC(CS1)c1nc-2c(C)o1 (stereo unspecified)	-2.3	
C[N+]1(CCC(=O)Nc2ccc3c(c2)C(=O)c2cc(NC(=O)CC[N+]4(C)CCCCC4)ccc2-3)CCCCC1	1.32	
O=C(CCN1CCCCC1)Nc1ccc2c(c1)C(=O)c1cc(NC(=O)CCN3CCCCC3)ccc1-2	0.95	
C[N+]1(CCC(=O)Nc2ccc3c(c2)C(=O)c2cc(NC(=O)CC[N+]4(C)CCCCC4CO)ccc2-3)CCCCC1CO (stereo unspecified)	1.52	
c1ccc2nc3cc(CNCCN4CCCCC4)c4nc5ccccc5cc4c3cc2c1	0.3	
CN(C)CCCNCc1cc2nc3ccccc3cc2c2cc3ccccc3nc12	-0.12	
O=C(CCN1CCCCCC1)Nc1ccc2cc3ccc(NC(=O)CCN4CCCCCC4)cc3nc2c1		logIC50 [2]: 0.49
O=C(O)CCCCCCCCCCCNC(=O)Cc1cn(CCCn2ccc3ccccc32)c2ccccc12		logIC50 [3]: 1.96
O=C(O)CCCCCCCCCCCNC(=O)Cc1cn(CCn2ccc3ccccc32)c2ccccc12		logIC50 [3]: 1.61
CCN(CC)CCC(=O)Nc1ccc2c(c1)C(=O)c1cc(NC(=O)CCN(CC)CC)ccc1-2	1.19	
